Results taken from paper PMC9709406 (Frontiers in Pharmacology, 2022).
Where “and” joins values, the source holds several entries; their conditions need not be identical. Equal entries are not always repeated.

Assays:
KYSE70 cells = test: MTT assay, KYSE70; format: cell-based, human; details: for IC50: Homo sapiens, KYSE-70, MTT, 48 h, KYSE70, n = 5
Excerpt: (§1) The human cancer cells (H1650, H1975, KYSE70, KYSE410 and KYSE450) were purchased from the Type Culture Collection of the Chinese Academy of Sciences (Shanghai, China). The human immortalized normal esophageal epithelial cell line SHEE was donated by Dr. Enmin Li from the Laboratory of Tumor Pathology (Shantou University Medical College, Shantou, Guangdong, China). Drug-resistant cells (H1650TR, H1975OR, KYSE70TR, KYSE410TR and KYSE450TR) were induced by China-US (Henan) Hormel Cancer Institute. The cellswere cultured in RPMI-1640 complete growth medium containing 100 U/mL penicillin-streptomycin and 10% FBS. Based on the above medium formula, 100 nm/L paclitaxel was added in taxol-resistant cells, 100 nm/L gefitinib was added in gefitinib-resistant cells. The cells were incubated at 37 °C in an atmosphere containing 5% of CO2. The compounds were dissolved in DMSO to make a 50 mM stock solution and were diluted to the concentration of working solutions with complete growth medium before administration.
(§2) Cells were seeded in 96-well plates with 2,200–2,500 cells/well in100 μL. One day after seeding, test compounds with the concentration between 0 and 50 μM were added with 0.1% DMSO as control. Five multiple wells for each concentration. After 48 h, MTT was added and incubated in the plate for 1–4 h in the incubator. The absorbance at 490 nm was measured using a microplate reader (Thermo).

H1650 cells = test: MTT assay for cell proliferation and cytotoxicity, H1650; format: cell-based; details: Homo sapiens, NCI-H1650, 48 h, H1650, n = 5
Excerpt: as §1, §2

KYSE450 cells = test: MTT assay, KYSE450; format: cell-based, human; details: for IC50: Homo sapiens, KYSE-450, MTT, 48 h, KYSE450, n = 5, read-out: IC50 48 h KYSE450; for absorbance 490 nm, single well / mean absorbance 490 nm (row G) / mean absorbance 490 nm minus background (row H): KYSE450
Excerpt: as §1, §2

KYSE410 cells = test: MTT assay, KYSE410; format: cell-based, human; details: for IC50: Homo sapiens, KYSE-410, MTT, 48 h, KYSE410, n = 5, read-out: IC50 48 h KYSE410
Excerpt: as §1, §2

SHEE cells = test: MTT assay, normal esophageal epithelial cell line SHEE; format: cell-based; details: Homo sapiens, 48 h, n = 5
Excerpt: as §1, §2

H1975 cells = test: MTT assay for cell proliferation and cytotoxicity, H1975; format: cell-based, human; details: Homo sapiens, NCI-H1975, 48 h, MTT, 48 h, H1975, n = 5; read-out: IC50 48 h H1975
Excerpt: as §1
as §2, with “After 48 h, MTT was added and incubated in the plate for 1–4 h in the incubator.” left out

[1] = concentration 12.5 (unit not given)
[2] = concentration 25 (unit not given)
[3] = concentration 50 (unit not given)
[4] = concentration 100 (unit not given)

Brc1ccc(-n2cc(-c3cccc(Nc4ncnc5cc6c(cc45)OCCOCCOCCO6)c3)nn2)cc1 [compound 3j]
IC50 (KYSE70 cells): 50 µM | IC50 (H1650 cells): 27.6 ± 1.85 µM | melting point: 158 to 161 °C | IC50 (KYSE450 cells): 12.5 ± 1.22 µM | IC50 (KYSE410 cells): > 50 µM | IC50 (SHEE cells): > 50 µM | IC50 (H1975 cells): 5.02 ± 0.37 µM

Brc1ccccc1-n1cc(-c2cccc(Nc3ncnc4cc5c(cc34)OCCOCCOCCO5)c2)nn1 [compound 3k]
IC50 (KYSE70 cells): 5.05 ± 0.34 µM | IC50 (H1650 cells): 17.7 ± 1.21 µM | melting point: 129 to 132 °C | IC50 (KYSE450 cells): 6.25 ± 0.57 µM | IC50 (KYSE410 cells): 21.9 ± 1.39 µM | IC50 (SHEE cells): 12.5 ± 1.03 µM | IC50 (H1975 cells): 27.2 ± 1.67 µM

Fc1ccccc1Cn1cc(-c2cccc(Nc3ncnc4cc5c(cc34)OCCOCCOCCO5)c2)nn1 [compound 3m]
IC50 (KYSE70 cells): > 50 µM | IC50 (H1650 cells): > 50 µM | melting point: 118 to 121 °C | IC50 (KYSE450 cells): > 50 µM | IC50 (KYSE410 cells): > 50 µM | IC50 (SHEE cells): > 50 µM | IC50 (H1975 cells): 47.3 ± 2.01 µM

Cc1ccccc1Cn1cc(-c2cccc(Nc3ncnc4cc5c(cc34)OCCOCCOCCO5)c2)nn1 [compound 3n]
IC50 (KYSE70 cells): 6.87 ± 0.51 µM | blank-corrected absorbance 490 nm relative to control (fraction) (KYSE70 cells; KYSE70, concentration 12.5): 0.09055 | inhibition (1 minus fraction of control) (KYSE70 cells; KYSE70, concentration 12.5): 0.9094 | blank-corrected absorbance 490 nm relative to control (fraction) (KYSE70 cells; KYSE70, concentration 25): 0.002598 | inhibition (1 minus fraction of control) (KYSE70 cells; KYSE70, concentration 25): 0.9974 | blank-corrected absorbance 490 nm relative to control (fraction) (KYSE70 cells; KYSE70, concentration 50): 0.03637 | inhibition (1 minus fraction of control) (KYSE70 cells; KYSE70, concentration 50): 0.9636 | blank-corrected absorbance 490 nm relative to control (fraction) (KYSE70 cells; KYSE70, concentration 100): 0.0579 | inhibition (1 minus fraction of control) (KYSE70 cells; KYSE70, concentration 100): 0.9421 | IC50 (H1650 cells): 17 ± 1.27 µM | melting point: 114 to 117 °C | IC50 (KYSE450 cells): 13.4 ± 0.99 µM | absorbance 490 nm, single well (KYSE450 cells; [1]): 0.3403 and 0.3956 and 0.3877 | mean absorbance 490 nm (row G) (KYSE450 cells; [1]): 0.3745 | mean absorbance 490 nm minus background (row H) (KYSE450 cells; [1]): 0.3163 | absorbance 490 nm, single well (KYSE450 cells; [2]): 0.0581 and 0.0586 and 0.0622 and 0.0619 | mean absorbance 490 nm (row G) (KYSE450 cells; [2]): 0.0602 | mean absorbance 490 nm minus background (row H) (KYSE450 cells; [2]): 0.002 | absorbance 490 nm, single well (KYSE450 cells; [3]): 0.062 and 0.0626 and 0.0677 and 0.0632 | mean absorbance 490 nm (row G) (KYSE450 cells; [3]): 0.06374 | mean absorbance 490 nm minus background (row H) (KYSE450 cells; [3]): 0.00554 | absorbance 490 nm, single well (KYSE450 cells; [4]): 0.0608 and 0.061 and 0.0613 and 0.0611 and 0.0627 | mean absorbance 490 nm (row G) (KYSE450 cells; [4]): 0.06138 | mean absorbance 490 nm minus background (row H) (KYSE450 cells; [4]): 0.00318 | IC50 (KYSE410 cells): 8.23 ± 0.92 µM | blank-corrected absorbance 490 nm relative to control (fraction) (KYSE410 cells; KYSE410, concentration 12.5): 0.2414 | inhibition (1 minus fraction of control) (KYSE410 cells; KYSE410, concentration 12.5): 0.7586 | blank-corrected absorbance 490 nm relative to control (fraction) (KYSE410 cells; KYSE410, concentration 25): 0.04668 | inhibition (1 minus fraction of control) (KYSE410 cells; KYSE410, concentration 25): 0.9533 | blank-corrected absorbance 490 nm relative to control (fraction) (KYSE410 cells; KYSE410, concentration 50): 0.02603 | inhibition (1 minus fraction of control) (KYSE410 cells; KYSE410, concentration 50): 0.974 | blank-corrected absorbance 490 nm relative to control (fraction) (KYSE410 cells; KYSE410, concentration 100): 0.07058 | inhibition (1 minus fraction of control) (KYSE410 cells; KYSE410, concentration 100): 0.9294 | IC50 (SHEE cells): 8.05 ± 0.71 µM | IC50 (H1975 cells): 18.5 ± 1.43 µM

Cc1ccc(Cn2cc(-c3cccc(Nc4ncnc5cc6c(cc45)OCCOCCOCCO6)c3)nn2)cc1 [compound 3o]
IC50 (KYSE70 cells): 14.6 ± 0.96 µM | IC50 (H1650 cells): 5.6 ± 0.29 µM | melting point: 124 to 127 °C | IC50 (KYSE450 cells): 4.81 ± 0.36 µM | IC50 (KYSE410 cells): > 50 µM | IC50 (SHEE cells): 22.4 ± 1.26 µM | IC50 (H1975 cells): 8.7 ± 0.66 µM

Ic1ccccc1Cn1cc(-c2cccc(Nc3ncnc4cc5c(cc34)OCCOCCOCCO5)c2)nn1 [compound 3p]
IC50 (KYSE70 cells): 19.9 ± 1.31 µM | IC50 (H1650 cells): 4.41 ± 0.31 µM | melting point: 121 to 123 °C | IC50 (KYSE450 cells): > 50 µM | IC50 (KYSE410 cells): > 50 µM | IC50 (SHEE cells): > 50 µM | IC50 (H1975 cells): 39.5 ± 1.91 µM

Brc1cccc(Cn2cc(-c3cccc(Nc4ncnc5cc6c(cc45)OCCOCCOCCO6)c3)nn2)c1 [compound 3q]
IC50 (KYSE70 cells): 20.7 ± 1.73 µM | IC50 (H1650 cells): 21.5 ± 1.87 µM | melting point: 113 to 116 °C | IC50 (KYSE450 cells): 21.8 ± 1.12 µM | IC50 (KYSE410 cells): > 50 µM | IC50 (SHEE cells): > 50 µM | IC50 (H1975 cells): 47.3 ± 2.13 µM
